Measured values published in patent US7563893B2, “3-Phenyl-cinnoline analogue and antitumor agent using the same” (Nippon Kayaku Kabushiki Kaisha, priority 2002, dated 2009).
≈ marks a conversion by molar mass, not a printed value.

What was measured:
[1] = system: Mammary tumor cell MDA-MB-453; assay: Antitumor effect in vitro, proliferation inhibition (methylene blue staining, absorption at 660 nm); type: cell-based; settings: MDA-MB-453, 4000 cells, incubated 3 days with compound; for IC50: Homo sapiens, 72 h, read-out: IC50 (50% cell proliferation inhibitory concentration), MDA-MB-453
Experimental: (§1) Antitumor Effect in vitro Using Mammary Tumor Cell MCF-7 and MDA-MB-453
(§2) Each MCF-7, 2000 cells, and MDA-MB-453, 4000 cells, was inoculated using 10% serum added RPMI 1640 medium (Asahi Technoclass Inc.) into a 96 well plate. After incubating these cells at 37° C., under atmosphere of 5% CO2/95% air for 24 hours, each of the compounds of Examples 1, 2, 6, 9-13, 20, 24, 26, 27, 65, 66, 70, 71, 72 and 73 was added and incubated for further 3 days. Cells were stained with a 0.05% methylene blue solution and measured using a microplate reader (Benchmark Plus, Bio-Rad Laboratories) by absorption at 660 nm. Proliferation inhibition rate was calculated by the following equation, and 50% cell proliferation inhibitory concentrations of the compounds of Examples 1, 2, 6, 9-13, 20, 24, 26, 27, 65, 66, 70, 71, 72 and 73 were shown in Table 2. Proliferation inhibition rate=(1−absorbance with drug addition÷absorbance in control)×100

Mammary tumor cell MCF-7 = assay: as above; type: cell-based; settings: MCF-7, 2000 cells, incubated 3 days with compound; for IC50: Homo sapiens, MCF7, 72 h, read-out: IC50 (50% cell proliferation inhibitory concentration), MCF-7
Experimental: as §1, §2

[2] = system: Mammary tumor cells ZR-75-1; assay: Antitumor effect in vivo, subcutaneous tumor in nude mice; settings: day 15 after initiating administration; oral 500 mg/kg once a day for 14 days; ZR-75-1 in female nude mice
Experimental: Antitumor Effect in vivo Using Mammary Tumor Cell ZR-75-1
Mammary tumor cells ZR-75-1 were inoculated in dorsal subcutaneous region of female nude mice. The compound of example 66 and example 53 was administered orally at dose level of 500 mg/kg, once a day, for 14 days consecutively from the point of initiating logarithmic growth of tumor cells. Conjugate axis and transverse axis of tumor were measured in the time dependent manner, and tumor volume was calculated by the following equation. Relative tumor volume, wherein tumor volume at the time of initiating administration was set as 1, was calculated. Effectiveness was judged by value (T/C) wherein tumor volume in the treated group is divided by tumor volume in the control group. tumor volume=conjugate axis×conjugate axis×transverse axis/2

[3] = system: mammary tumor cells, T-47D; assay: Antitumor effect in vitro, proliferation inhibition, same condition as Test Example 1; type: cell-based; settings: Homo sapiens, T47D, 4000 cells
Experimental: as §2
Further, a test was conducted by using 4000 mammary tumor cells, T-47D, by adding a compound of example 65 or 66 under the same condition hereinabove.

Row | Molecule | IC50 [1] | IC50 (Mammary tumor cell MCF-7) | further results
1 | CC1CC(=O)c2cc(-c3cccc(F)c3)nnc2C1 (stereo not drawn) [Example 24, 3-(3-fluorophenyl)-7-methyl-7,8-dihydro-6H-cinnolin-5-one] | 4.95 µg/mL (≈ 19.3 µM) | 3.57 µg/mL (≈ 13.9 µM) | 
2 | CC1Cc2nnc(-c3cccc(C(F)(F)F)c3)cc2C(OC(=O)[C@@H](N)C(C)C)C1.Cl.Cl (stereo partly drawn) [Example 53, 5-(L-valyloxy)-7-methyl-3-(3-trifluoromethylphenyl)-5,6,7,8-tetrahydrocinnoline dihydrochloride] |  |  | T/C value (tumor volume in treated group divided by control group) [2]: 34.0%; melting point: 201 to 203 °C
3 | O=C1CCCc2c1cc(-c1cccc(C(F)(F)F)c1)n[n+]2[O-] [Example 13, 5-oxo-1-oxy-3-(3-trifluoromethylphenyl)-7,8-dihydro-6H-cinnoline] |  |  | IC50 (50% cell proliferation inhibitory concentration), MDA-MB-453 [1]: 0.9510 µg/mL (≈ 3.09 µM); IC50 (50% cell proliferation inhibitory concentration), MCF-7 (Mammary tumor cell MCF-7): 0.0671 µg/mL (≈ 0.218 µM)
4 | CC(=O)Oc1cc(C)cc2nnc(-c3cccc(C(F)(F)F)c3)cc12 [Example 72, 5-acetyloxy-7-methyl-3-(3-trifluoromethylphenyl)cinnoline] | 0.42 µg/mL (≈ 1.21 µM) | 0.138 µg/mL (≈ 0.398 µM) | 
5 | COc1cc(C)cc2nnc(-c3cccc(C(F)(F)F)c3)cc12 [Example 71, 5-methoxy-7-methyl-3-(3-trifluoromethylphenyl)cinnoline] | 3.36 µg/mL (≈ 10.6 µM) | 0.158 µg/mL (≈ 0.496 µM) | 
6 | CC1CC(=O)c2cc(-c3cccc(C(F)(F)F)c3)nnc2C1 (stereo not drawn) [Example 66, 7-methyl-3-(3-trifluoromethylphenyl)-7,8-dihydro-6H-cinnolin-5-one] | 1.26 µg/mL (≈ 4.11 µM) | 0.05 µg/mL (≈ 0.163 µM) | T/C value (tumor volume in treated group divided by control group) [2]: 30.3%; IC50 [3]: 0.28 µg/mL (≈ 0.914 µM)
7 | CCOC(=O)C1CC(=O)c2cc(-c3cccc(C(F)(F)F)c3)nnc2C1 (stereo not drawn) [Example 2, ethyl 5-oxo-3-(3-trifluoro-methylphenyl)-7,8-dihydro-6H-cinnoline-7-carboxylate] |  |  | IC50 (50% cell proliferation inhibitory concentration), MDA-MB-453 [1]: 1.5700 µg/mL (≈ 4.31 µM); IC50 (50% cell proliferation inhibitory concentration), MCF-7 (Mammary tumor cell MCF-7): 1.9600 µg/mL (≈ 5.38 µM)
8 | CC(C)[C@H](N)C(=O)O[C@@H]1C[C@@H](C)Cc2nnc(-c3cccc(C(F)(F)F)c3)cc21.Cl.Cl |  |  | melting point: 181 to 185 °C
9 | Cc1cc(O)c2cc(-c3cccc(C(F)(F)F)c3)nnc2c1 [Example 70, 7-methyl-3-(3-trifluoromethylphenyl)cinnolin-5-ol] | 0.551 µg/mL (≈ 1.81 µM) | 0.181 µg/mL (≈ 0.595 µM) | 
10 | CC1Cc2nnc(-c3cccc(C(F)(F)F)c3)cc2C(O)C1 (stereo not drawn) [Example 10, syn-(+)-7-methyl-3-(3-trifluoromethylphenyl)-5,6,7,8-tetrahydrocinnolin-5-ol] |  |  | IC50 (50% cell proliferation inhibitory concentration), MDA-MB-453 [1]: 1.5400 µg/mL (≈ 5 µM); IC50 (50% cell proliferation inhibitory concentration), MCF-7 (Mammary tumor cell MCF-7): 0.0982 µg/mL (≈ 0.319 µM)
11 | 7-benzyl-3-(3-trifluoromethylphenyl)-7,8-dihydro-6H-pyrido[3,4-c]-pyridazin-3-one [Example 26] |  |  | IC50 (50% cell proliferation inhibitory concentration), MDA-MB-453 [1]: 8.9300 µg/mL; IC50 (50% cell proliferation inhibitory concentration), MCF-7 (Mammary tumor cell MCF-7): 0.3610 µg/mL
12 | O=C1CC(c2ccccc2)Cc2nnc(-c3cccc(C(F)(F)F)c3)cc21 (stereo not drawn) [Example 1, 7-phenyl-3-(3-trifluoro-methylphenyl)-7,8-dihydro-6H-cinnolin-5-one] |  |  | IC50 (50% cell proliferation inhibitory concentration), MDA-MB-453 [1]: 0.0395 µg/mL (≈ 0.107 µM); IC50 (50% cell proliferation inhibitory concentration), MCF-7 (Mammary tumor cell MCF-7): 0.0388 µg/mL (≈ 0.105 µM)
13 | CC1Cc2nnc(-c3cccc(C(F)(F)F)c3)cc2C(O)C1 (stereo not drawn) [Example 9, syn-(−)-7-methyl-3-(3-trifluoromethylphenyl)-5,6,7,8-tetrahydrocinnolin-5-ol] |  |  | IC50 (50% cell proliferation inhibitory concentration), MDA-MB-453 [1]: 0.3390 µg/mL (≈ 1.1 µM); IC50 (50% cell proliferation inhibitory concentration), MCF-7 (Mammary tumor cell MCF-7): 0.0772 µg/mL (≈ 0.25 µM)
14 | CC1Cc2nnc(-c3cccc(C(F)(F)F)c3)cc2C(O)C1 (racemic) [Example 6, 7-methyl-3-(3-trifluoromethylphenyl)-5,6,7,8-tetrahydrocinnolin-5-ol] | 1.47 µg/mL (≈ 4.77 µM) | 0.0499 µg/mL (≈ 0.162 µM) | 
15 | CC(C)[C@H](N)C(=O)O[C@@H]1C[C@H](C)Cc2nnc(-c3cccc(C(F)(F)F)c3)cc21.Cl.Cl |  |  | melting point: 162 to 165 °C
16 | CC(C)(O)C1Cc2nnc(-c3cccc(C(F)(F)F)c3)cc2C(O)C1 (stereo not drawn) [Example 27, 7-(2-hydroxy-2-propyl)-3-(3-trifluoromethylphenyl)-5,6,7,8-tetrahydrocinnolin-5-ol] | 4.72 µg/mL (≈ 13.4 µM) | 0.271 µg/mL (≈ 0.769 µM) | 
17 | CC(C)[C@H](N)C(=O)O[C@H]1C[C@H](C)Cc2nnc(-c3cccc(C(F)(F)F)c3)cc21.Cl.Cl |  |  | melting point: 186 to 189 °C

Further lines, with some results ahead:

Row | IC50 [1] | IC50 (Mammary tumor cell MCF-7) | Molecule | further results
18 | 2.6 µg/mL (≈ 6.59 µM) | 0.399 µg/mL (≈ 1.01 µM) | Cc1cc(OCc2ccccc2)c2cc(-c3cccc(C(F)(F)F)c3)nnc2c1 [Example 73, 5-benzyloxy-7-methyl-3-(3-trifluoromethylphenyl)cinnoline] | 
19 | 9.35 µg/mL (≈ 33 µM) | 1.41 µg/mL (≈ 4.96 µM) | CC1CC(=O)c2cc(-c3cccc([N+](=O)[O-])c3)nnc2C1 (stereo not drawn) [Example 20, 7-methyl-3-(3-nitrophenyl)-7,8-dihydro-6H-cinnolin-5-one] | 
20 | 0.848 µg/mL (≈ 2.42 µM) | 0.0455 µg/mL (≈ 0.13 µM) | CC(=O)OC1CC(C)Cc2nnc(-c3cccc(C(F)(F)F)c3)cc21 (stereo not drawn) [Example 11, 5-acetyloxy-7-methyl-3-(3-trifluoromethylphenyl)-5,6,7,8-tetrahydrocinnoline] | 
21 | 1.64 µg/mL (≈ 5.32 µM) | 0.1 µg/mL (≈ 0.324 µM) | CC1CC(=O)C2=C(C1)NN=C(c1cccc(C(F)(F)F)c1)C2 (stereo not drawn) [Example 65, 7-methyl-3-(3-trifluoromethylphenyl)-4,6,7,8-tetrahydro-1H-cinnolin-5-one] | IC50 [3]: 0.67 µg/mL (≈ 2.17 µM)
